Patent US12060351B2, “Thiadiazole IRAK4 inhibitors” (Gilead Sciences, Inc., priority 2018, dated 2024)
Read-outs that look alike come from different tables or passages of the source.

What was measured:
[1] = target: T1, IRAK4 enzyme (Homo sapiens, UniProt Q9NWZ3); experiment: IRAK4 Biochemical Assay (TR-FRET, STK1 KinEASE); settings: 500 μM ATP, Table 2 second part (compounds 33-343), read-out: IC50 IRAK4-HTBS
T1 construct: purchased Carna Biosciences, Chuo-ku, Kobe, Japan
T1 sequence (Q9NWZ3 1-460): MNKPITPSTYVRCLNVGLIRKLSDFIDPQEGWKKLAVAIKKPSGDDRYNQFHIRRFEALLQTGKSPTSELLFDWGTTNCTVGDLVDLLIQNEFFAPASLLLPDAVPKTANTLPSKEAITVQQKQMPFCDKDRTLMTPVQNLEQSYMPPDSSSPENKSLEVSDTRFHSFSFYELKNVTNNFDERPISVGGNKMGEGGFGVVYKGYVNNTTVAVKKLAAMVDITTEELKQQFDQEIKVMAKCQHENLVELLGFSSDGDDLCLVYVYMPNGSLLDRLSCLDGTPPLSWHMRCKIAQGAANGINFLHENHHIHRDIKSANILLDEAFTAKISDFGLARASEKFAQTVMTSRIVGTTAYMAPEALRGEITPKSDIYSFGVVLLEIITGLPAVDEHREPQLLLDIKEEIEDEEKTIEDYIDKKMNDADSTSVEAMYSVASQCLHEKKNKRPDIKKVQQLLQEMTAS
Experimental: IRAK4 enzyme (Carna Biosciences, Chuo-ku, Kobe, Japan) activity was measured by detecting phosphorylated peptide substrate formation using an antibody against the phosphorylated peptide substrate. This is a time-resolved fluorescence resonance energy transfer (TR-FRET) immunoassay, based on the STK1 KinEASE Assay (Cisbio, Bedford, Massachusetts). The assay was designed as a simple two-step, endpoint assay (a 5 μl enzyme reaction followed by 5 μl stop and detect Solution) performed in ProxiPlate-384 Plus plates (Perkin Elmer, Waltham, Massachusetts). […] Compounds diluted in DMSO were spotted into 384 well plates using a Labcyte® Echo 550 Liquid Handling System prior to addition of IRAK4 enzyme and peptide substrate. Reaction solutions were delivered using a Multi-Flo (Bio-Tek Instruments). The enzyme and peptide solution was incubated with compound for 15 minutes at room temp before the reaction was initiated by the addition of ATP. The standard 5 μl reaction mixture contained 500 μM ATP, 2 μM peptide (STK1 Peptide), 0.75 nM of IRAK4 in reaction buffer (50 mM HEPES, pH 7.0, 0.02% NaN3, 0.01% BSA, 0.1 mM Orthovanadate, 5 mM MgCl2, 0.025% NP-40, 1 mM DTT). After 120 min of incubation at room temperature, 5 μl of Stop and Detect Solution (1:100 Cryptate labeled anti-phosphorylated peptide antibody solution and 125 nM Tracer in a 50 mM HEPES pH 7.0 detection buffer containing sufficient EDTA) was added. The plate was then further incubated for 60 minutes at room temperature and read on Envision 2103 Multilabeled reader (PerkinElmer) with excitation/emission/FRET emission at 340 nm/615 nm/665 nm, respectively. Fluorescence intensities at 615 nm and 665 nm emission wavelengths were expressed as a ratio (665 nm/615 nm).

[2] = test system: TNFα; experiment: IRAK4 Monocyte TNFα Cell Based Assay (LPS-stimulated, TR-FRET TNFα detection); set-up: species or system human; settings: Homo sapiens, Monocyte, read-out: EC50 MONO TNF HTRF
Experimental: IRAK4 Monocyte TNFα Cell Based Assay Procedure:
The cell suspension was then plated at a density of 5,000 cells/well onto black 384 well Greiner clear bottom plates. Plates were pre-spotted with test compounds and serially diluted in DMSO where 40 nL/well were delivered using the Echo 550 acoustic liquid dispenser (Labcyte®) for a final DMSO concentration of 0.1%. Plated cells were treated with compound for 1 hour at 37° C. Cells were then stimulated with 50 pg/ml of LPS (Sigma) excluding outside columns of plate used for unstimulated cell control wells. Cells were incubated for an additional 4 hours at 37° C. Cells were then spun out of the media and 5 μl of sample were taken and analyzed for total TNFα content using the TR-FRET Human TNFα detection system (CisBio). This system utilizes two labeled antibodies (cryptate and XL665) that bind to two different epitopes of the TNFα molecule and produce FRET signal proportional to the concentration of TNFα in the sample. Detection antibodies are mixed 50:50 and 5 μL were dispensed into each well. Plates were covered with clear seals and incubated at room temp overnight. […] Percent of control was calculated as follows: % Control=100×(RatioSample−Ratio0% Stimulation)/(Ratio100% Stimulation−Ratio0% Stimulation) where unstimulated cells (0% stimulation) were the negative control and stimulated cells (100% stimulation) were used as the positive control.

[3] = human monocytes, LPS-stimulated, Table 2 second part (compounds 33-343)

Compound	IC50 [1]	EC50 [2, 3]	EC50 [2]
CNc1cc(-c2ccc3cc(C#N)cnn23)ncc1-c1nnc(N2C[C@H]3C[C@@H](C2)[C@@H]3NC(C)=O)s1 [Example 176, N-((1R,5S,6s)-3-(5-(6-(3-cyanopyrrolo[1,2-b]pyridazin-7-yl)-4-(methylamino)pyridin-3-yl)-1,3,4-thiadiazol-2-yl)-3-azabicyclo[3.1.1]heptan-6-yl)acetamide]	0.76 nM		23.5 nM
CC(C)Nc1cc(-c2ccc3cc(C#N)cnn23)ncc1-c1nnc([C@H]2CC[C@H](NC(=O)N3CCOCC3)CC2)s1 [Example 139, N-((1r,4r)-4-(5-(6-(3-cyanopyrrolo[1,2-b]pyridazin-7-yl)-4-(isopropylamino)pyridin-3-yl)-1,3,4-thiadiazol-2-yl)cyclohexyl)morpholine-4-carboxamide]	0.65 nM	5.9 nM	
CC(C)(O)C(=O)N[C@@H]1[C@@H]2CC[C@H]1CN(c1nnc(-c3cnc(-c4ccc5cc(C#N)cnn45)cc3NC3COC3)s1)C2 [Example 87, N-((1R,5S,8s)-3-(5-(6-(3-cyanopyrrolo[1,2-b]pyridazin-7-yl)-4-(oxetan-3-ylamino)pyridin-3-yl)-1,3,4-thiadiazol-2-yl)-3-azabicyclo[3.2.1]octan-8-yl)-2-hydroxy-2-methylpropanamide]	0.6 nM	2.1 nM	
CC(C)Nc1cc(-c2ccc3cc(C#N)cnn23)ncc1-c1nnc(N2C[C@H]3CC[C@@H](C2)[C@@H]3N2CCOC2=O)s1 [Compound 301, 7-(4-(isopropylamino)-5-(5-((1R,5S,8s)-8-(2-oxooxazolidin-3-yl)-3-azabicyclo[3.2.1]octan-3-yl)-1,3,4-thiadiazol-2-yl)pyridin-2-yl)pyrrolo[1,2-b]pyridazine-3-carbonitrile]	1.04 nM	4.9 nM	
CC(=O)N[C@@H]1[C@@H]2CC[C@H]1CN(c1nnc(-c3cnc(-c4ccc5cc(C#N)cnn45)cc3NC3CCOCC3)s1)C2 [Example 171, N-((1R,5S,8s)-3-(5-(6-(3-cyanopyrrolo[1,2-b]pyridazin-7-yl)-4-((tetrahydro-2H-pyran-4-yl)amino)pyridin-3-yl)-1,3,4-thiadiazol-2-yl)-3-azabicyclo[3.2.1]octan-8-yl)acetamide]	0.46 nM	2.1 nM	
CC(C)Nc1cc(-c2ccc3cc(C#N)cnn23)ncc1-c1nnc(N2C[C@H]3CC[C@@H](C2)[C@@]3(C)O)s1 [Example 153, 7-(5-(5-((1R,5S,8r)-8-hydroxy-8-methyl-3-azabicyclo[3.2.1]octan-3-yl)-1,3,4-thiadiazol-2-yl)-4-(isopropylamino)pyridin-2-yl)pyrrolo[1,2-b]pyridazine-3-carbonitrile]	0.91 nM	7.2 nM	
CC(=O)N[C@H]1CC[C@H](c2nnc(-c3cnc(-c4ccc5cc(C#N)cnn45)cc3N[C@H]3CCC[C@@H](O)C3)s2)CC1 [Compound 245, N-((1S,4r)-4-(5-(6-(3-cyanopyrrolo[1,2-b]pyridazin-7-yl)-4-(((1S,3R)-3-hydroxycyclohexyl)amino)pyridin-3-yl)-1,3,4-thiadiazol-2-yl)cyclohexyl)acetamide]	0.55 nM	3.2 nM	
CC(=O)N[C@H]1CC[C@H](c2nnc(-c3cnc(-c4ccc5cc(C#N)cnn45)cc3N[C@H]3C[C@@](C)(O)C3)s2)CC1 [Compound 243, N-((1R,4r)-4-(5-(6-(3-cyanopyrrolo[1,2-b]pyridazin-7-yl)-4-(((1s,3S)-3-hydroxy-3-methylcyclobutyl)amino)pyridin-3-yl)-1,3,4-thiadiazol-2-yl)cyclohexyl)acetamide]	0.55 nM	6.4 nM	
CC(=O)N[C@@H]1[C@@H]2C[C@H]1CN(c1nnc(-c3cnc(-c4ccc5cc(C#N)cnn45)cc3N[C@H](C)C#N)s1)C2 [Example 174, N-((1R,5S,6S)-3-(5-(4-(((R)-1-cyanoethyl)amino)-6-(3-cyanopyrrolo[1,2-b]pyridazin-7-yl)pyridin-3-yl)-1,3,4-thiadiazol-2-yl)-3-azabicyclo[3.1.1]heptan-6-yl)acctamide]	0.49 nM		3.5 nM

Further compounds by falling IC50 [1], results first:

IC50 [1]	EC50 [2, 3]	Compound	EC50 [2]
1.78 nM	5.9 nM	CC(C)Nc1cc(-c2ccc3cc(C#N)cnn23)ncc1-c1nnc(N2C[C@H]3CC[C@@H](C2)[C@@H]3NC(=O)[C@H]2C[C@@](C)(O)C2)s1 [Example 93, (1s,3S)-N-((1R,5S,8s)-3-(5-(6-(3-cyanopyrrolo[1,2-b]pyridazin-7-yl)-4-(isopropylamino)pyridin-3-yl)-1,3,4-thiadiazol-2-yl)-3-azabicyclo[3.2.1]octan-8-yl)-3-hydroxy-3-methylcyclobutane-1-carboxamide]	
0.94 nM	102 nM	CCOC(=O)Cc1nnc(-c2cnc(-c3ccc4cc(C#N)cnn34)cc2NC(C)C)s1 [Example 318, ethyl 2-(5-(6-(3-cyanopyrrolo[1,2-b]pyridazin-7-yl)-4-(isopropylamino)pyridin-3-yl)-1,3,4-thiadiazol-2-yl)acetate]	
0.84 nM	6.4 nM	CNC(=O)N[C@H]1CC[C@H](c2nnc(-c3cnc(-c4ccc5cc(C#N)cnn45)cc3NC(C)C)s2)CC1 [Example 140, 1-((1r,4r)-4-(5-(6-(3-cyanopyrrolo[1,2-b]pyridazin-7-yl)-4-(isopropylamino)pyridin-3-yl)-1,3,4-thiadiazol-2-yl)cyclohexyl)-3-mcthylurea]	
0.81 nM	11.1 nM	CC(C)Nc1cc(-c2ccc3cc(C#N)cnn23)ncc1-c1nnc(C(=O)N2CCC[C@H]2CO)s1 [Example 217, (S)-7-(5-(5-(2-(hydroxymethyl)pyrrolidine-1-carbonyl)-1,3,4-thiadiazol-2-yl)-4-(isopropylamino)pyridin-2-yl)pyrrolo[1,2-b]pyridazine-3-carbonitrile]	
0.52 nM	10.5 nM	N#Cc1cnn2c(-c3cc(NC4COC4)c(-c4nnc([C@H]5CC[C@H](NC(=O)C6CC6)CC5)s4)cn3)ccc2c1 [Example 135, N-((1r,4r)-4-(5-(6-(3-cyanopyrrolo[1,2-b]pyridazin-7-yl)-4-(oxetan-3-ylamino)pyridin-3-yl)-1,3,4-thiadiazol-2-yl)cyclohexyl)cyclopropanecarboxamide]	
0.38 nM	9.2 nM	N#Cc1cnn2c(-c3cc(NC4COC4)c(-c4nnc([C@H]5CC[C@H](NC(=O)N6CCOCC6)CC5)s4)cn3)ccc2c1 [Example 142, N-((1r,4r)-4-(5-(6-(3-cyanopyrrolo[1,2-b]pyridazin-7-yl)-4-(oxetan-3-ylamino)pyridin-3-yl)-1,3,4-thiadiazol-2-yl)cyclohexyl)morpholine-4-carboxamide]	
0.25 nM	5.4 nM	CC(C)Nc1cc(-c2ccc3cc(C#N)cnn23)ncc1-c1nnc([C@H]2CC[C@H](NC(=O)C3CC3)CC2)s1 [Example 125, N-((1r,4r)-4-(5-(6-(3-cyanopyrrolo[1,2-b]pyridazin-7-yl)-4-(isopropylamino)pyridin-3-yl)-1,3,4-thiadiazol-2-yl)cyclohexyl)cyclopropanecarboxamide]	
0.24 nM	21.4 nM	CC(=O)NC[C@H]1C[C@@H](c2nnc(-c3cnc(-c4ccc5cc(C#N)cnn45)cc3NC(C)C)s2)C1 [Compound 289, N-(((1s,3s)-3-(5-(6-(3-cyanopyrrolo[1,2-b]pyridazin-7-yl)-4-(isopropylamino)pyridin-3-yl)-1,3,4-thiadiazol-2-yl)cyclobutyl)methyl)acetamide]	
